Source: PubChem BioAssay AID248 (DTP/NCI, 2004)
Several values for one entry are separate records, joined by “and”; a condition that tells them apart may be missing. Equal values may be shown once. Inconclusive results and toxic doses are left out. Rule as the data show it: active = T/C of 150% or more; inactive = T/C below 125%. Square brackets hold non-standard residues; d marks the D form. Peptide text beside a SMILES is read from it. * marks the point of attachment. ξ: configuration not given here. ξF = NC(Cc1ccccc1)C(=O)O; Cbz = O=C(OCc1ccccc1)*

System: L1210 leukemia ip in BDF1 mice, survival T/C
Test: NCI In Vivo Anticancer Drug Screen. Data for tumor model L1210 Leukemia (intraperitoneal) in B6D2F1 (BDF1) mice
Details: endpoint: mean survival time, higher = longer survival
How it was run: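 Read-out is survival time, reported as the treated-group measurement over the vehicle-control measurement.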

[1] = dose: 100.0 mg/kg/injection, schedule: Q01DX009 (ip), vehicle: saline with Tween-80
[2] = dose: 100.0 mg/kg/injection, schedule: Q04DX003 (ip), vehicle: saline with Tween-80
[3] = dose: 200.0 mg/kg/injection, schedule: Q01DX009 (ip), vehicle: saline with Tween-80
[4] = dose: 200.0 mg/kg/injection, schedule: Q04DX003 (ip), vehicle: saline with Tween-80
[5] = dose: 400.0 mg/kg/injection, schedule: Q04DX003 (ip), vehicle: saline with Tween-80
[6] = dose: 100.0 mg/kg/injection, schedule: Q01DX001 (ip), vehicle: saline
[7] = dose: 200.0 mg/kg/injection, schedule: Q01DX001 (ip), vehicle: saline
[8] = dose: 100.0 mg/kg/injection, schedule: Q01DX001 (ip), vehicle: Klucel (hydroxypropylcellulose) (HPC)
[9] = dose: 100.0 mg/kg/injection, schedule: Q01DX009 (ip), vehicle: Klucel (hydroxypropylcellulose) (HPC)
[10] = dose: 100.0 mg/kg/injection, schedule: Q04DX002 (ip), vehicle: Klucel (hydroxypropylcellulose) (HPC)
[11] = dose: 100.0 mg/kg/injection, schedule: Q04DX003 (ip), vehicle: Klucel (hydroxypropylcellulose) (HPC)
[12] = dose: 200.0 mg/kg/injection, schedule: Q01DX001 (ip), vehicle: Klucel (hydroxypropylcellulose) (HPC)
[13] = dose: 200.0 mg/kg/injection, schedule: Q01DX009 (ip), vehicle: Klucel (hydroxypropylcellulose) (HPC)
[14] = dose: 200.0 mg/kg/injection, schedule: Q04DX002 (ip), vehicle: Klucel (hydroxypropylcellulose) (HPC)
[15] = dose: 200.0 mg/kg/injection, schedule: Q04DX003 (ip), vehicle: Klucel (hydroxypropylcellulose) (HPC)
[16] = dose: 400.0 mg/kg/injection, schedule: Q01DX001 (ip), vehicle: Klucel (hydroxypropylcellulose) (HPC)
[17] = dose: 400.0 mg/kg/injection, schedule: Q01DX009 (ip), vehicle: Klucel (hydroxypropylcellulose) (HPC)
[18] = dose: 400.0 mg/kg/injection, schedule: Q04DX003 (ip), vehicle: Klucel (hydroxypropylcellulose) (HPC)
[19] = dose: 100.0 mg/kg/injection, schedule: Q04DX003 (ip), vehicle: saline
[20] = dose: 100.0 mg/kg/injection, schedule: Q04DX002 (ip), vehicle: saline
[21] = dose: 200.0 mg/kg/injection, schedule: Q04DX002 (ip), vehicle: saline
[22] = dose: 400.0 mg/kg/injection, schedule: Q04DX002 (ip), vehicle: saline
[23] = dose: 200.0 mg/kg/injection, schedule: Q04DX003 (ip), vehicle: saline
[24] = dose: 400.0 mg/kg/injection, schedule: Q01DX001 (ip), vehicle: saline
[25] = dose: 400.0 mg/kg/injection, schedule: Q04DX003 (ip), vehicle: saline
[26] = dose: 400.0 mg/kg/injection, schedule: Q04DX002 (ip), vehicle: Klucel (hydroxypropylcellulose) (HPC)
[27] = dose: 25.0 mg/kg/injection, schedule: Q01DX009 (ip), vehicle: Klucel (hydroxypropylcellulose) (HPC)

Measured: T/C

C[CH2][Sn](/[CH]=C/C=C/OC)([CH2]C)[CH2]C
inactive: dose: 0.19 mg/kg/injection, schedule: Q01DX009 (ip), vehicle: saline 99 % of control | dose: 0.39 mg/kg/injection, schedule: Q01DX009 (ip), vehicle: saline 94 % of control | dose: 0.78 mg/kg/injection, schedule: Q01DX009 (ip), vehicle: saline 99 % of control | dose: 6.25 mg/kg/injection, schedule: Q01DX009 (ip), vehicle: saline 94 % of control | dose: 12.5 mg/kg/injection, schedule: Q01DX009 (ip), vehicle: saline 97 % of control

S=c1[nH]c2c(Cl)c(Cl)c(Cl)c(Cl)c2[nH]1
inactive: [1] 90 % of control | [2] 100 % of control | [3] 95 % of control | [4] 98 % of control | [5] 102 % of control

CC1COCC(C)N1CC(=O)NCCCN1CCN(CCCNC(=O)CN2C(C)COCC2C)CC1 (configuration not stated)
inactive: dose: 44.0 mg/kg/injection, schedule: Q01DX001 (ip), vehicle: saline 98 % of control and 103 % of control | dose: 66.0 mg/kg/injection, schedule: Q01DX001 (ip), vehicle: saline 104 % of control and 108 % of control | [6] 104 % of control and 105 % of control | dose: 150.0 mg/kg/injection, schedule: Q01DX001 (ip), vehicle: saline 110 % of control and 116 % of control | [7] 113 % of control

CCCCCCC(=O)C1OC1CCCCCCCCC(=O)O (configuration not stated)
inactive: dose: 100.0 mg/kg/injection, schedule: Q04DX002 (ip), vehicle: other 112 % of control | dose: 400.0 mg/kg/injection, schedule: Q04DX002 (ip), vehicle: other 94 % of control

COc1ccc(COC(=O)Nc2cccc(Cl)c2)cc1
inactive: [8] 111 % of control | [9] 93 % of control and 97 % of control | [10] 100 % of control | [11] 108 % of control | [12] 101 % of control | [13] 90 % of control and 92 % of control | [14] 104 % of control | [15] 102 % of control | [16] 95 % of control | [17] 93 % of control and 90 % of control | [18] 111 % of control

CN(CCCN1C(=O)c2ccccc2C1=O)c1ccc(NS(=O)(=O)c2ccc([N+](=O)[O-])cc2)cc1
inactive: [8] 100 % of control | [12] 103 % of control | [16] 97 % of control

N=C(N)SCc1ccc(CSC(=N)N)cc1
inactive: dose: 12.5 mg/kg/injection, schedule: Q04DX002 (ip), vehicle: saline with Tween-80 102 % of control | dose: 25.0 mg/kg/injection, schedule: Q01DX009 (ip), vehicle: saline 91 % of control | dose: 25.0 mg/kg/injection, schedule: Q04DX002 (ip), vehicle: saline with Tween-80 94 % of control | dose: 25.0 mg/kg/injection, schedule: Q04DX003 (ip), vehicle: saline 103 % of control | dose: 50.0 mg/kg/injection, schedule: Q01DX009 (ip), vehicle: saline 97 % of control | dose: 50.0 mg/kg/injection, schedule: Q04DX003 (ip), vehicle: saline 102 % of control | [19] 105 % of control

C#CCOCCC#N
inactive: [20] 101 % of control | [21] 94 % of control

Cc1ccc(NC(=O)Oc2cc(C)c(Cl)c(C)c2)cc1
inactive: [9] 94 % of control | [13] 97 % of control | [17] 96 % of control

CCC(=O)C(CCN(C)C)(c1ccccc1)c1ccccc1
inactive: [6] 110 % of control

COC1(NC(=O)CCCC(N)C(=O)O)C(=O)N2C(C(=O)O)=C(COC(N)=O)CSC21 (configuration not stated)
inactive: [20] 103 % of control | [21] 122 % of control | [22] 107 % of control

O=C1CC2(CCCCC2)C(=O)N1Nc1ccccc1
inactive: [11] 105 % of control | [15] 98 % of control | [18] 102 % of control

CCCC(=O)N1CC(C)OC(C)C1 (configuration not stated)
inactive: [6] 100 % of control | dose: 100.0 mg/kg/injection, schedule: Q01DX009 (ip), vehicle: saline 98 % of control and 104 % of control | [20] 109 % of control | [19] 98 % of control | [7] 93 % of control | dose: 200.0 mg/kg/injection, schedule: Q01DX009 (ip), vehicle: saline 100 % of control and 104 % of control | [21] 115 % of control | [23] 104 % of control | [24] 104 % of control | dose: 400.0 mg/kg/injection, schedule: Q01DX009 (ip), vehicle: saline 96 % of control and 107 % of control | [22] 102 % of control | [25] 100 % of control

CC1(C)OC2OC(COC(=O)c3ccccc3)C(=O)C2O1 (configuration not stated)
inactive: dose: 50.0 mg/kg/injection, schedule: Q01DX001 (ip), vehicle: saline 101 % of control | [6] 106 % of control | [7] 101 % of control | [24] 98 % of control

CCCC(=O)Nc1cc(C)ccc1N=Nc1ccc(C)cc1
inactive: dose: 100.0 mg/kg/injection, schedule: Q01DX001 (ip), vehicle: saline with Tween-80 95 % of control | [1] 97 % of control and 105 % of control | dose: 100.0 mg/kg/injection, schedule: Q04DX002 (ip), vehicle: saline with Tween-80 90 % of control and 92 % of control | [2] 100 % of control | dose: 200.0 mg/kg/injection, schedule: Q01DX001 (ip), vehicle: saline with Tween-80 103 % of control | [3] 88 % of control and 90 % of control | dose: 200.0 mg/kg/injection, schedule: Q04DX002 (ip), vehicle: saline with Tween-80 97 % of control and 92 % of control | [4] 97 % of control | dose: 400.0 mg/kg/injection, schedule: Q01DX001 (ip), vehicle: saline with Tween-80 98 % of control | dose: 400.0 mg/kg/injection, schedule: Q01DX009 (ip), vehicle: saline with Tween-80 97 % of control | dose: 400.0 mg/kg/injection, schedule: Q04DX002 (ip), vehicle: saline with Tween-80 97 % of control | [5] 97 % of control

COC1(c2ccccc2)c2cc3ccccc3cc2C(OC)(c2ccccc2)c2cc3ccccc3cc21 (configuration not stated)
inactive: [10] 98 % of control | [14] 109 % of control | [26] 95 % of control

Cc1ccccc1N=C(N)N=C(N)N
inactive: [27] 93 % of control | dose: 25.0 mg/kg/injection, schedule: Q04DX003 (ip), vehicle: Klucel (hydroxypropylcellulose) (HPC) 95 % of control | dose: 50.0 mg/kg/injection, schedule: Q01DX009 (ip), vehicle: Klucel (hydroxypropylcellulose) (HPC) 90 % of control | dose: 50.0 mg/kg/injection, schedule: Q04DX003 (ip), vehicle: Klucel (hydroxypropylcellulose) (HPC) 103 % of control | [9] 98 % of control and 92 % of control | [11] 100 % of control and 90 % of control

COc1cc(OC)cc(OC)c1
inactive: [11] 100 % of control | [15] 105 % of control | [18] 97 % of control

COC(=O)C(Cc1ccccc1)NC(=O)CNC(=O)CNC(=O)OCc1ccccc1 (stereo not drawn) (Cbz-Gly-Gly-[ξF]-OMe)
inactive: dose: 100.0 mg/kg/injection, schedule: Q04DX003 (ip), vehicle: other 98 % of control | dose: 200.0 mg/kg/injection, schedule: Q04DX003 (ip), vehicle: other 97 % of control | dose: 400.0 mg/kg/injection, schedule: Q04DX003 (ip), vehicle: other 106 % of control

CC(C)(C)C(=O)C(O)C(C)(C)C (configuration not stated)
inactive: [6] 95 % of control | [7] 97 % of control | [24] 93 % of control

COc1ccc(C(=O)c2ccc(OC)c(OC)c2C(=O)O)cc1
inactive: [19] 106 % of control | [23] 114 % of control | [25] 103 % of control

COc1cccc(C2CCN(C)C2)c1 (configuration not stated)
inactive: dose: 6.25 mg/kg/injection, schedule: Q01DX009 (ip), vehicle: Klucel (hydroxypropylcellulose) (HPC) 110 % of control | dose: 12.5 mg/kg/injection, schedule: Q01DX009 (ip), vehicle: Klucel (hydroxypropylcellulose) (HPC) 108 % of control | [27] 103 % of control | [11] 105 % of control | [15] 103 % of control

CCCCc1cc([N+](=O)[O-])cc([N+](=O)[O-])c1OCN1C(=O)C2C3CCC(O3)C2C1=O (configuration not stated)
inactive: [10] 113 % of control | [14] 98 % of control | [26] 106 % of control
